Results from ChEMBL document CHEMBL4396870, “Pharmacological Chaperones for the Treatment of α-Mannosidosis” (J Med Chem, 2019).
Substitutions are numbered along the chain they refer to.

What was measured:
[1] = system: T1, Lysosomal alpha-mannosidase (Homo sapiens), O00754 [L352P]; assay: Chaperone activity at human Lysosomal alpha-mannosidase L352P mutant transfected in human […] knockout HAP1 cells assessed as enzyme activity enhancement at 2 uM incubated for 96 hrs relative to control
T1 sequence (whole entry): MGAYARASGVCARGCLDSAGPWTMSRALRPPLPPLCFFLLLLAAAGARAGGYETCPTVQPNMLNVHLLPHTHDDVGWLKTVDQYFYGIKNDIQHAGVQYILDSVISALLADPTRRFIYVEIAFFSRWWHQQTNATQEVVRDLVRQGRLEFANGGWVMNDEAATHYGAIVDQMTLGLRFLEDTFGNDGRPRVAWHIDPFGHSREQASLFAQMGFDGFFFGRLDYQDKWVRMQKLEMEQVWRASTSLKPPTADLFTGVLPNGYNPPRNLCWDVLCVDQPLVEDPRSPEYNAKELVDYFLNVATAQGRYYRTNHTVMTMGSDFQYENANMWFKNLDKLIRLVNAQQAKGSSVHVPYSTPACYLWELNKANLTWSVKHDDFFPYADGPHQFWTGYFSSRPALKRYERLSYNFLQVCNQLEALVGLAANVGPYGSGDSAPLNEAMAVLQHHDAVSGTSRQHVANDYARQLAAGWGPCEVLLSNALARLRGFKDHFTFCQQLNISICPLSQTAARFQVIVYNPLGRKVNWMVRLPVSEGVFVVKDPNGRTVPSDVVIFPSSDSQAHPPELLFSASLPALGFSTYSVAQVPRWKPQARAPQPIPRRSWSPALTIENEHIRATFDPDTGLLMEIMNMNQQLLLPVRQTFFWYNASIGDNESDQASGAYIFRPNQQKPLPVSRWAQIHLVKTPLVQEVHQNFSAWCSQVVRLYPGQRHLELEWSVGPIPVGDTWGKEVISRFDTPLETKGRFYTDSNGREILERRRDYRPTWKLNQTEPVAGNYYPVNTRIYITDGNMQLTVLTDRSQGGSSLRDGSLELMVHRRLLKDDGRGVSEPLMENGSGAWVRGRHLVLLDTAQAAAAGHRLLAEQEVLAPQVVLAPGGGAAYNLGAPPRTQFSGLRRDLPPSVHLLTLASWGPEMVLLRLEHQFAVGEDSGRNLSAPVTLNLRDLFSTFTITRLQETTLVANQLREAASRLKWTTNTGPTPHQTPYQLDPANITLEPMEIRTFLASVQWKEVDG

[2] = system: T2, Lysosomal alpha-mannosidase (Homo sapiens), O00754 [C55F]; assay: Chaperone activity at human Lysosomal alpha-mannosidase C55F mutant transfected in human […] knockout HAP1 cells assessed as enzyme activity enhancement at 2 uM incubated for 96 hrs relative to control
T2 sequence (whole entry): T1 sequence (whole entry) with C55F, P352L

[3] = system: T1, Lysosomal alpha-mannosidase (Homo sapiens), O00754 [L352P]; assay: Chaperone activity at human Lysosomal alpha-mannosidase L352P mutant transfected in human […] knockout HAP1 cells assessed as enzyme activity enhancement at 0.2 uM incubated for 96 hrs relative to control

| Activity [1] | Activity [2] | Activity [3] | Compound |
| --- | --- | --- | --- |
| 6% | 12% | 10% | COC[C@H]1O[C@@H]2O[C@H]3[C@H](OC)[C@@H](OC)[C@@H](O[C@H]4[C@H](OC)[C@@H](OC)[C@@H](O[C@H]5[C@H](OC)[C@@H](OC)[C@@H](O[C@H]6[C@H](OC)[C@@H](OC)[C@@H](O[C@H]7[C@H](OC)[C@@H](OC)[C@@H](O[C@H]8[C@H](OC)[C@@H](OC)[C@@H](O[C@H]1[C@H](OC)[C@H]2OC)O[C@@H]8COC)O[C@@H]7COC)O[C@@H]6COC)O[C@@H]5COCc1cn(CCCCCCN[C@@H]2[C@@H](O)[C@@H](O)[C@H](O)[C@H]5COC(=O)N52)nn1)O[C@@H]4COC)O[C@@H]3COC |
| 8% | 51% | 0% | CC(C)(C)OC(=O)NCCCCCCCCCN[C@@H]1[C@@H](O)[C@@H](O)[C@H](O)[C@H]2COC(=O)N21 |
